In one assay the target is T1, Nox5 (Homo sapiens, UniProt Q96PH1).
T1 construct: expressed in transfected cells; host or cells: HEK-Nox5 cells (gift of D. Fulton)
T1 sequence (Q96PH1 19-737 isoform Q96PH1-3 limits assumed): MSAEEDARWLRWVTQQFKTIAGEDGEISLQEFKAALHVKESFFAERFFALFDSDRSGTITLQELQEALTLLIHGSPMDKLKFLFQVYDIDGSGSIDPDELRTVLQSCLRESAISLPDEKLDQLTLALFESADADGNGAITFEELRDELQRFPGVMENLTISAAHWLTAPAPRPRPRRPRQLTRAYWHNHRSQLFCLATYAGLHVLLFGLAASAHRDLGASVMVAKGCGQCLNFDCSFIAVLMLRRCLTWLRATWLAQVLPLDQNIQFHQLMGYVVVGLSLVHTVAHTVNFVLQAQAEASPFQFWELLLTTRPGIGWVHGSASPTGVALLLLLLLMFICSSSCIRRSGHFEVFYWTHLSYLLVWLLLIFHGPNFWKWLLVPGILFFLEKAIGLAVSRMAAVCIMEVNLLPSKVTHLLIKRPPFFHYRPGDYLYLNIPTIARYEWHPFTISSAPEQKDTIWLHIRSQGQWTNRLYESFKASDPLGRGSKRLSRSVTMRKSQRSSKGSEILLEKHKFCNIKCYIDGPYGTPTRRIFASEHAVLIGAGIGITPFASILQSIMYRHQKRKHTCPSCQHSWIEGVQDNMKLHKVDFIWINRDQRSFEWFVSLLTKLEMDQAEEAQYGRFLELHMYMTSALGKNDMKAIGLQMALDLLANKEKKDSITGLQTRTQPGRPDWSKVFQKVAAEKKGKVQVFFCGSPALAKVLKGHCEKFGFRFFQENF
Put plainly: Nox5 activity in HEK-Nox5 cells, L-012 assay. The format is cell-based. Particulars: for IC50: HEK-Nox5 cells stimulated with 1 μM PMA and 0.5 ionomycin, L-012, read-out: IC50 of ROS generation, Nox5 (L-012 assay); for Nox5 inhibitory activity: Table 2. An excerpt: (§1) All cell culture reagents were obtained from Invitrogen, unless indicated. COS-22 (COS-7 cells stably expressing human p22^phox) and COS-Nox2 (a.k.a. COS-phox) cells (COS-7 cells stably expressing human p22^phox, Nox2, p47^phox and p67^phox) were kindly provided by Dr. Mary C. Dinauer (Indiana University, School of Medicine) (Price et al., Blood, 2002, 99:2653-2661). COS-22 cells were maintained in Dulbecco's Modified Eagle Medium (DMEM) with 4.5 g/L glucose, L-glutamine and sodium pyruvate containing 10% heat-inactivated fetal bovine serum (FBS), 100 units/ml penicillin and 100 μg/ml streptomycin (complete media) supplemented with 1.8 mg/ml G418 (Calbiochem/EMB Bioscience, Gibbstown, N.J.). COS-Nox2 cells were maintained in complete media supplemented with 1.8 mg/mL G418, 1 μg/mL puromycin (Sigma, St Louis, Mo.) and 0.2 mg/mL hygromycin B (Invitrogen, Carlsbad, Calif.). HEK-Nox5 cells were kindly provided by Dr. David Fulton (Georgia Health Sciences University) and maintained in complete media.
COS-Nox2, COS-Nox1/NOXO1/NOXA1, HEK-Nox5 and COS-22 cells were re-plated in OPTIMEM into 384-well white micro-plates (Greiner-Bio One GmbH, Germany) at a density of 2.5×10^3 cells/well for COS-Nox2 and 5×10^4 cells/well for all others. The cells were incubated at 37° C. in PBS containing 400 μm L-012 for 10 min. […] Since Nox1 was constitutively active, Nox1-derived O2^•− was assessed by comparison to non-transfected cells (Cos22). Luminescence was quantified over time using a Biotek Synergy 4 Hybrid Multi-Mode Microplate Reader. The specificity of L-012 for O2^•− was confirmed by the addition of SOD (150 U/mL).
(§2) All data are expressed as means±SEM. IC50 values were determined using the GraphPad Prism software (GraphPad Software, San Diego, Calif.) for non-linear regression three-parameters, with constrain values of 100 and 0 for top and bottom, respectively, and assumes a Hill slope of 1.

The target in a further assay is T2, Nox2 (Homo sapiens, UniProt P04839).
T2 construct: expressed in transfected cells
T2 sequence (P04839 2-570 limits assumed): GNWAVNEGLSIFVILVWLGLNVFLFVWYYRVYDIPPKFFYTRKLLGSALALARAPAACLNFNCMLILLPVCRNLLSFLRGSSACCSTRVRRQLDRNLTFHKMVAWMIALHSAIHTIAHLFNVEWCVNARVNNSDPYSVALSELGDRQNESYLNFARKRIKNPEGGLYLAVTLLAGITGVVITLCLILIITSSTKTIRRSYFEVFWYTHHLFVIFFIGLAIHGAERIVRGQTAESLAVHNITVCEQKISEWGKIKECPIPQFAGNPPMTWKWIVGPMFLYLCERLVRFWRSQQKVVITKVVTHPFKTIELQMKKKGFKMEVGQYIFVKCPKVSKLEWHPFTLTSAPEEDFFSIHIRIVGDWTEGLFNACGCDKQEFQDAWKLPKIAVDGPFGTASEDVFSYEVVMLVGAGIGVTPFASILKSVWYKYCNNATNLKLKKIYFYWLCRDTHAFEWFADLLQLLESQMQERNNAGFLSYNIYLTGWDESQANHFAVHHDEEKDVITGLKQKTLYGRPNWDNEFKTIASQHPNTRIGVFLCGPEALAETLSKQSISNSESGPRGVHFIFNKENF
The assay can be described thus: ROS (superoxide) generation in whole COS-Nox2 cells, L-012 chemiluminescence. Particulars: whole COS-Nox2 cells stimulated with 5 μM PMA. The format is cell-based.
From the text: as §1
COS-Nox2, COS-Nox1/NOXO1/NOXA1, HEK-Nox5 and COS-22 cells were re-plated in OPTIMEM into 384-well white micro-plates (Greiner-Bio One GmbH, Germany) at a density of 2.5×10^3 cells/well for COS-Nox2 and 5×10^4 cells/well for all others. The cells were incubated at 37° C. in PBS containing […] L-012 for 10 min. Reaction was initiated by addition of 5 μM PMA in the case of Nox2 or 1 μM PMA/0.1 μM Ionomycin in the case of Nox5. Since Nox1 was constitutively active, Nox1-derived O2^•− was assessed by comparison to non-transfected cells (Cos22). Luminescence was quantified over time using a Biotek Synergy 4 Hybrid Multi-Mode Microplate Reader. The specificity of L-012 for O2^•− was confirmed by the addition of SOD (150 U/mL).
as §2
Heterologous Nox1, 2, 4, and 5 cell systems were used as a testing paradigm to identify a probe molecule that inhibits Nox2 selectively over Nox1, 4, and 5. An acceptable probe would also show a lack of activity against XO, which also produces ROS. The latter screen would serve two purposes: (1) to eliminate drugs that inhibit an oxidase of distinct composition; and (2) to preclude agents that directly scavenge ROS. A cell-based primary assay using stable Nox2-transfected COS cells (Price et al., Blood 2002, 99:2653-2661) with L-012 chemiluminescence (Daiber et al., Free Radic. Biol. Med. 2004, 36:101-111) was used as a detection system for O2^•−-generation.

Structures are written as SMILES. A value given as a limit tells only on which side of the number the result lay.

For the molecule `C=C(C)CC1NC2CC(C)(C)C1c1ccccc12` (racemic) [Compound 8, (±)-(1S,4R,9S)-3,3-Dimethyl-9-(2-methylallyl)-1,2,3,4-tetrahydro-1,4-(epiminomethano)-naphthalene], on Nox5, the IC50 is over 100 µM and the “Nox5 inhibitory activity” value is “inactive”. In addition, the IC50 at Nox2 was over 100 µM.
In the case of `C=C(C)CC1C2c3c(Br)cccc3C(CC2(C)C)N1CCCCC` (racemic) [Compound 11g, (±)-(1S,4R,9S)-5-Bromo-3,3-dimethyl-9-(2-methylallyl-10-pentyl-1,2,3,4-tetrahydro-1,4-(epiminomethano)naphthalene], on Nox5, the IC50 is over 100 µM and the “Nox5 inhibitory activity” value is listed as “virtually no effect”. The IC50 on Nox2 amounted to 20 ± 4.9 µM.
For `C=C(C)CC1C2c3ccccc3C(CC2(C)C)N1Cc1cccc(F)c1` (racemic) [Compound 11a, (±)-(1S,4R,9S)-10-(3-Fluorobenzyl)-3,3-dimethyl-9-(2-methylallyl)-1,2,3,4-tetrahydro-1,4-(epiminomethano)naphthalene] the same measures were 50 ± 9 µM, “inhibited” and 68 ± 33 µM.

The values are drawn from patent US10906876B2, “Tetrahydroisoquinolines as selective NADPH oxidase 2 inhibitors” (University of Pittsburgh—Of the Commonwealth System of …, priority 2013, dated 2021).
